Test results as given in ChEMBL document CHEMBL3779877, “Anticancer activity studies of cubebin isolated from Piper cubeba and its synthetic derivatives” (Bioorg Med Chem Lett, 2016).
Calls of active or inactive are those of the source. The calls are words filed in the database; no cut-off is given here.

Columns and labels:
[1] = tested on: HT-29; experiment: Cytotoxicity against human HT-29 cells assessed as reduction in viable cells after 48 hrs by MTT assay; assay type: functional, cell-based; settings: HT-29, 48 h
[2] = Cytotoxicity against human HCT116 cells assessed as reduction in viable cells after 48 hrs by MTT assay; assay type: functional, cell-based; settings: HCT-116, 48 h
[3] = tested on: K562; experiment: Cytotoxicity against human K562 cells assessed as reduction in viable cells after 48 hrs by MTT assay; assay type: functional, cell-based; settings: K562, 48 h
[4] = tested on: KB; experiment: Cytotoxicity against human KB cells assessed as reduction in viable cells after 48 hrs by MTT assay; assay type: functional, cell-based
[5] = tested on: SiHa; experiment: Cytotoxicity against human SiHa cells assessed as reduction in viable cells after 48 hrs by MTT assay; assay type: functional, cell-based
[6] = tested on: A549; experiment: Cytotoxicity against human A549 cells assessed as reduction in viable cells after 48 hrs by MTT assay; assay type: functional, cell-based; settings: A549, 48 h
[7] = tested on: KB; experiment: Induction of apoptosis in human KB cells assessed as chromosomal condensation at cytotoxic IC50 after 48 hrs by AO/EB dual staining based fluorescent microscopic analysis; assay type: functional, cell-based
[8] = tested on: KB; experiment: Induction of apoptosis in human KB cells assessed as detached cells at cytotoxic IC50 after 48 hrs by inverted microscopic analysis; assay type: functional, cell-based
[9] = tested on: KB; experiment: Induction of apoptosis in human KB cells assessed as cell shrinkage at cytotoxic IC50 after 48 hrs by inverted microscopic analysis; assay type: functional, cell-based
[10] = tested on: KB; experiment: Induction of apoptosis in human KB cells assessed as fragmented nuclei at cytotoxic IC50 after 48 hrs by Hoechst 33342 staining based fluorescent microscopic analysis; assay type: functional, cell-based
[11] = tested on: KB; experiment: Induction of apoptosis in human KB cells assessed as membrane blebbing at cytotoxic IC50 after 48 hrs by AO/EB dual staining based fluorescent microscopic analysis; assay type: functional, cell-based
[12] = tested on: KB; experiment: Induction of apoptosis in human KB cells assessed as loss of normal nuclear architecture at cytotoxic IC50 after 48 hrs by inverted microscopic analysis; assay type: functional, cell-based
[13] = tested on: KB; experiment: Induction of apoptosis in human KB cells assessed as cell shrinkage at cytotoxic IC50 after 48 hrs by AO/EB dual staining based fluorescent microscopic analysis; assay type: functional
[14] = tested on: KB; experiment: Induction of apoptosis in human KB cells assessed as condensed nuclei at cytotoxic IC50 after 48 hrs by Hoechst 33342 staining based fluorescent microscopic analysis; assay type: functional, cell-based
[15] = tested on: A549; experiment: Induction of apoptosis in human A549 cells assessed as cell shrinkage at cytotoxic IC50 after 48 hrs by inverted microscopic analysis; assay type: functional, cell-based
[16] = tested on: A549; experiment: Induction of apoptosis in human A549 cells assessed as fragmented nuclei at cytotoxic IC50 after 48 hrs by Hoechst 33342 staining based fluorescent microscopic analysis; assay type: functional, cell-based
[17] = tested on: A549; experiment: Induction of apoptosis in human A549 cells assessed as membrane blebbing at cytotoxic IC50 after 48 hrs by AO/EB dual staining based fluorescent microscopic analysis; assay type: functional, cell-based
[18] = tested on: A549; experiment: Induction of apoptosis in human A549 cells assessed as loss of normal nuclear architecture at cytotoxic IC50 after 48 hrs by inverted microscopic analysis; assay type: functional, cell-based
[19] = tested on: A549; experiment: Induction of apoptosis in human A549 cells assessed as cell shrinkage at cytotoxic IC50 after 48 hrs by AO/EB dual staining based fluorescent microscopic analysis; assay type: functional
[20] = tested on: A549; experiment: Induction of apoptosis in human A549 cells assessed as condensed nuclei at cytotoxic IC50 after 48 hrs by Hoechst 33342 staining based fluorescent microscopic analysis; assay type: functional, cell-based
[21] = tested on: A549; experiment: Induction of apoptosis in human A549 cells assessed as detached cells at cytotoxic IC50 after 48 hrs by inverted microscopic analysis; assay type: functional, cell-based
[22] = tested on: A549; experiment: Induction of apoptosis in human A549 cells assessed as chromosomal condensation at cytotoxic IC50 after 48 hrs by AO/EB dual staining based fluorescent microscopic analysis; assay type: functional, cell-based
[23] = Cytotoxicity against human HCT116; assay type: functional; settings: HCT-116

Row | Compound | IC50 [1] | IC50 [2] | IC50 [3] | IC50 [4] | IC50 [5] | IC50 [6] | also measured
1 | CC(C)CCN1C(=O)[C@@H](Cc2ccc3c(c2)OCO3)[C@H](Cc2ccc3c(c2)OCO3)C1=O | 66.2 µM | 67.7 µM | > 100 µM | 7.71 µM | 89.3 µM | > 100 µM | –
2 | O=C1[C@@H](Cc2ccc3c(c2)OCO3)[C@H](Cc2ccc3c(c2)OCO3)C(=O)N1CCc1ccccc1 | 66.5 µM | 64 µM | 9.15 µM | 62.6 µM | 96.3 µM | > 100 µM | –
3 | O=C(NCc1c[nH]c2ccccc12)[C@@H](Cc1ccc2c(c1)OCO2)[C@@H](CO)Cc1ccc2c(c1)OCO2 | 52.1 µM | > 100 µM | > 100 µM | 6.38 µM | > 100 µM | > 100 µM | Activity [7]: Active; Activity [8]: Active; Activity [9]: Active; Activity [10]: Active; Activity [11]: Active; Activity [12]: Active; Activity [13]: Active; Activity [14]: Active
4 | O=C1[C@@H](Cc2ccc3c(c2)OCO3)[C@H](Cc2ccc3c(c2)OCO3)C(=O)N1Cc1ccccc1 | 71.8 µM | 65.4 µM | 8.88 µM | 7.36 µM | > 100 µM | 58.6 µM | –
5 | COc1cc([C@@H]2c3cc4c(cc3[C@@H](O[C@@H]3O[C@@H]5CO[C@@H](C)O[C@H]5[C@H](O)[C@H]3O)[C@H]3COC(=O)[C@H]23)OCO4)cc(OC)c1O [ETOPOSIDE] | – | – | 4.39 µM | – | – | – | –
6 | OC1OC[C@@H](Cc2ccc3c(c2)OCO3)[C@@H]1Cc1ccc2c(c1)OCO2 (some centres not stated) | 45.2 µM | 45.1 µM | 8.66 µM | 8.16 µM | > 100 µM | 8.3 µM | –
7 | COc1ccc(CNC(=O)[C@@H](Cc2ccc3c(c2)OCO3)[C@@H](CO)Cc2ccc3c(c2)OCO3)cc1 | 51.1 µM | 46.1 µM | 8.37 µM | 9.17 µM | 91.5 µM | 6.61 µM | Activity [15]: Active; Activity [16]: Active; Activity [17]: Active; Activity [18]: Active; Activity [19]: Active; Activity [20]: Active; Activity [21]: Active; Activity [22]: Active
8 | CC(C)CCNC(=O)[C@@H](Cc1ccc2c(c1)OCO2)[C@@H](CO)Cc1ccc2c(c1)OCO2 | 23.8 µM | 66.8 µM | 48.8 µM | 8.94 µM | 95.8 µM | 8.75 µM | –
9 | O=C(NCc1ccccc1)[C@@H](Cc1ccc2c(c1)OCO2)[C@@H](CO)Cc1ccc2c(c1)OCO2 | 68 µM | 93.5 µM | 8.6 µM | 9.16 µM | > 100 µM | 10.8 µM | –
10 | O=C(NCc1ccc(F)cc1)[C@@H](Cc1ccc2c(c1)OCO2)[C@@H](CO)Cc1ccc2c(c1)OCO2 | 24.6 µM | 34.1 µM | 7.76 µM | 33.8 µM | 80 µM | 8.94 µM | –
11 | COc1cccc(CNC(=O)[C@@H](Cc2ccc3c(c2)OCO3)[C@@H](CO)Cc2ccc3c(c2)OCO3)c1 | 25.5 µM | > 100 µM | 7.98 µM | 80.5 µM | 25.3 µM | 7.28 µM | –
12 | O=C(NCCc1ccccc1)[C@@H](Cc1ccc2c(c1)OCO2)[C@@H](CO)Cc1ccc2c(c1)OCO2 | 58.9 µM | 7.83 µM | 7.91 µM | 7.09 µM | 57.5 µM | 7.28 µM | –
13 | O=C1[C@@H](Cc2ccc3c(c2)OCO3)[C@H](Cc2ccc3c(c2)OCO3)C(=O)N1Cc1ccc(F)cc1 | 72.1 µM | > 100 µM | > 100 µM | 8.95 µM | > 100 µM | > 100 µM | –
14 | O=C1OC[C@@H](Cc2ccc3c(c2)OCO3)[C@@H]1Cc1ccc2c(c1)OCO2 | 35.7 µM | 72.6 µM | 9.07 µM | 7.68 µM | 68.4 µM | 7.86 µM | Activity [15]: Active; Activity [7]: Active; Activity [8]: Active; Activity [16]: Active; Activity [9]: Active; Activity [17]: Active; Activity [10]: Active; Activity [11]: Active; Activity [12]: Active; Activity [18]: Active; Activity [19]: Active; Activity [20]: Active; Activity [13]: Active; Activity [21]: Active; Activity [22]: Active; Activity [14]: Active
15 | O=C(NCc1ccc(C(F)(F)F)cc1)[C@@H](Cc1ccc2c(c1)OCO2)[C@@H](CO)Cc1ccc2c(c1)OCO2 | 64.9 µM | > 100 µM | 8.86 µM | 19.2 µM | 73.7 µM | > 100 µM | –
16 | COc1ccc(CN2C(=O)[C@@H](Cc3ccc4c(c3)OCO4)[C@H](Cc3ccc4c(c3)OCO4)C2=O)cc1 | 72.6 µM | > 100 µM | 8.69 µM | 9.13 µM | 33.4 µM | 45.5 µM | –
17 | O=C(O)CC1OC[C@@H](Cc2ccc3c(c2)OCO3)[C@@H]1Cc1ccc2c(c1)OCO2 (some centres not stated) | > 100 µM | > 100 µM | 7.94 µM | 73.9 µM | > 100 µM | 52.9 µM | –
18 | O=C(NCCO)[C@@H](Cc1ccc2c(c1)OCO2)[C@@H](CO)Cc1ccc2c(c1)OCO2 | 51.1 µM | 45.2 µM | 87.4 µM | 7.96 µM | 85.2 µM | > 100 µM | –
19 | OC[C@@H](Cc1ccc2c(c1)OCO2)[C@@H](CO)Cc1ccc2c(c1)OCO2 | > 100 µM | 85.3 µM | 30.2 µM | 7.82 µM | > 100 µM | 75.5 µM | –
20 | COc1cc([C@@H]2c3cc4c(cc3[C@H](O)[C@H]3COC(=O)[C@H]23)OCO4)cc(OC)c1OC [PODOFILOX] | – | – | – | – | – | – | IC50 [23]: 0.01 µM
